The source of these data is paper PMC8400257, “2-Phenoxy-3-Trichloromethylquinoxalines Are Antiplasmodial Derivatives with Activity against the Apicoplast of Plasmodium falciparum” (Pharmaceuticals, 2021).

Tested on in one series: not listed separately
The series is described as follows: In vitro cytotoxicity evaluation HepG2 (MTT). The format is cell-based, human. The settings on record: human, CC50 HepG2 (µM) ± SD. On the procedure: (§1) For all molecules, the selectivity index was calculated as following SI = CC50/EC50.
Triplicate assays were performed for each sample. Each plate-well was then microscopically examined for possible precipitate formation before the medium was aspirated from the wells. Next, 100 µL of MTT (3-(4,5-dimethyl-2-thiazolyl)-2,5-diphenyl -2H-tetrazolium bromide) solution (0.5 mg/mL in medium without FBS) was added to each well. […] After this time, the MTT solution was removed and DMSO (100 μL) was added to dissolve the resulting blue formazan crystals. Plates were shaken vigorously (700 rpm) for 10 min. The absorbance was measured at 570 nm with 630 nm as reference wavelength using a BIO-TEK ELx808 Absorbance Microplate Reader (LabX, Midland, ON, Canada). DMSO was used as blank and doxorubicin (purchased from Sigma Aldrich) as positive control. Cell viability was calculated as a percentage of control (cells incubated without compound). […] CC50 values to represent the mean value calculated from three independent experiments.
In turn, `FC(F)(F)Oc1ccc(Oc2nc3ccccc3nc2C(Cl)(Cl)Cl)cc1` [3k, 2-Trichloromethyl-3-[4-(trifluoromethoxy)phenoxy]quinoxaline] displayed a CC50 at 72 h of 27.1 ± 4.7 µM.
`FC(F)(F)Sc1ccc(Oc2nc3ccccc3nc2C(Cl)(Cl)Cl)cc1` [3m, 2-Trichloromethyl-3-[4-(trifluoromethylthio)phenoxy]quinoxaline] registered a CC50 at 72 h of 25.6 ± 4.6 µM.
Molecule `O=S(=O)(c1ccc(Oc2nc3ccccc3nc2C(Cl)(Cl)Cl)cc1)C(F)(F)F` [3o, 2-Trichloromethyl-3-[4-(trifluoromethylsulfonyl)phenoxy]quinoxaline] returned a CC50 at 72 h of 7.2 ± 1.4 µM.
In turn, `N=S(=O)(c1ccc(Oc2nc3ccccc3nc2C(Cl)(Cl)Cl)cc1)C(F)(F)F` (centres unmarked) [3p, 2-Trichloromethyl-3-[4-(S-trifluoromethylsulfonimidoyl)phenoxy]quinoxaline] displayed a CC50 at 72 h of 6.5 ± 1.4 µM.
`C[C@H]1[C@H](OC(=O)CCC(=O)O)O[C@@H]2O[C@@]3(C)CC[C@H]4[C@H](C)CC[C@@H]1[C@@]24OO3` [Artesunate, reference compound]: the CC50 at 72 h was determined as 14.7 ± 1.4 µM.
Molecule `COc1cccc2c1C(=O)c1c(O)c3c(c(O)c1C2=O)C[C@@](O)(C(=O)CO)C[C@@H]3O[C@H]1C[C@H](N)[C@H](O)[C@H](C)O1` [Doxorubicin, reference compound] returned a CC50 at 72 h of 0.2 µM.
In turn, `C[C@H]1c2cccc(O)c2C(=O)C2=C(O)[C@]3(O)C(=O)C(C(N)=O)=C(O)[C@@H](N(C)C)[C@@H]3[C@@H](O)[C@@H]21` [Doxycycline, reference compound] yielded a CC50 at 72 h of 20 µM.

A further series deals with K1 chloroquine and pyrimethamine-resistant P. falciparum strain. The series is described as follows: In vitro antiplasmodial evaluation (SYBR Green I). It is filed as cell-based, Plasmodium falciparum. The conditions noted are these: K1 strain, 72 h incubation, three independent experiments; read-out: EC50 PfK1 (µM) ± SD. On the procedure: as §1
It was maintained in continuous culture, as described previously by Trager and Jensen. Cultures were maintained in fresh A+ human erythrocytes at 2.5% hematocrit in complete medium (RPMI 1640 with 25 mM HEPES, 25 mM NaHCO3, 10% of A+ human serum) at 37 °C under reduced O2 atmosphere (gas mixture 10% O2, 5% CO2, and 85% N2). Parasitemia was maintained daily between 1 and 3%. The P. falciparum drug susceptibility test was carried out by comparing quantities of DNA in treated and control cultures of parasite in human erythrocytes according to an SYBR Green I fluorescence-based method using a 96-well fluorescence plate reader. Compounds, previously dissolved in DMSO (final concentration less than 0.5% v/v), were incubated in a total assay volume of 200 μL (RPMI, 2% hematocrit and 0.4% parasitemia) for 72 h in a humidified atmosphere (10% O2 and 5% CO2) at 37 °C, in 96-well flat bottom plates. Duplicate assays were performed for each sample. After incubation, plates were frozen at […] for 24 h. Then, the frozen plates were thawed for 1 h at 37 °C. Fifteen µL of each sample were transferred to 96-well flat bottom non-sterile black plates (Greiner Bio-one, Kremsmünster, Austria), already containing 15 µL of the SYBR Green I lysis buffer (2X SYBR Green I, 20 mM Tris base pH 7.5, 20 mM EDTA, 0.008% w/v saponin, 0.08% w/v Triton X-100). […] Plates were incubated for 15 min at 37 °C and then read on a TECAN Infinite F-200 spectrophotometer with excitation and emission wavelengths at 485 and 535 nm, respectively.
In the case of `O=[N+]([O-])c1ccc(Oc2cnc3ccccc3n2)cc1` [3u, 2-(4-Nitrophenoxy)quinoxaline], the EC50 was above 16 µM.
Still for that read-out and setting: the figure for `O=[N+]([O-])c1ccc(Oc2nc3ccccc3nc2C(F)(F)F)cc1` [3v, 2-(4-Nitrophenoxy)-3-trifluoromethylquinoxaline] is above 16 µM.

Still in this series, the particulars now being: Plasmodium falciparum, K1, 72 h, K1 strain, 72 h incubation, three independent experiments; read-out: EC50 PfK1 (µM) ± SD.
With `FC(F)(F)Oc1ccc(Oc2nc3ccccc3nc2C(Cl)(Cl)Cl)cc1` [3k, 2-Trichloromethyl-3-[4-(trifluoromethoxy)phenoxy]quinoxaline], the EC50 was 0.4 ± 0.08 µM.
Still for that read-out and setting: the figure for `FC(F)(F)Sc1ccc(Oc2nc3ccccc3nc2C(Cl)(Cl)Cl)cc1` [3m, 2-Trichloromethyl-3-[4-(trifluoromethylthio)phenoxy]quinoxaline] is 0.2 ± 0.04 µM; for `O=S(=O)(c1ccc(Oc2nc3ccccc3nc2C(Cl)(Cl)Cl)cc1)C(F)(F)F` [3o, 2-Trichloromethyl-3-[4-(trifluoromethylsulfonyl)phenoxy]quinoxaline] it is 0.22 ± 0.07 µM.
For `N=S(=O)(c1ccc(Oc2nc3ccccc3nc2C(Cl)(Cl)Cl)cc1)C(F)(F)F` (centres unmarked) [3p, 2-Trichloromethyl-3-[4-(S-trifluoromethylsulfonimidoyl)phenoxy]quinoxaline], the EC50 came out at 0.21 ± 0.05 µM.
Still for that read-out and setting: the figure for `O=[N+]([O-])c1ccc(Oc2cnc3ccccc3n2)cc1` [3u, 2-(4-Nitrophenoxy)quinoxaline] is above 25 µM.
On the same count and under the same terms, the figure for `O=[N+]([O-])c1ccc(Oc2nc3ccccc3nc2C(F)(F)F)cc1` [3v, 2-(4-Nitrophenoxy)-3-trifluoromethylquinoxaline] is above 25 µM; for `O=[N+]([O-])c1ccc(Oc2nc3ccccc3nc2C(Cl)Cl)cc1` [3w, 2-Dichloromethyl-3-(4-nitrophenoxy)quinoxaline] it is above 16 µM; for `C[C@H]1[C@H](OC(=O)CCC(=O)O)O[C@@H]2O[C@@]3(C)CC[C@H]4[C@H](C)CC[C@@H]1[C@@]24OO3` [Artesunate, reference compound] it is 0.003 ± 0.0012 µM.
Still for that read-out and setting: the result for `C[C@H]1c2cccc(O)c2C(=O)C2=C(O)[C@]3(O)C(=O)C(C(N)=O)=C(O)[C@@H](N(C)C)[C@@H]3[C@@H](O)[C@@H]21` [Doxycycline, reference compound] reads 6 µM.

Staying with this series, now noted: Plasmodium falciparum, K1, 72 h, read-out: EC50 PfK1 (µM) ± SD.
In the case of `CCN(CC)CCCC(C)Nc1ccnc2cc(Cl)ccc12` (centres unmarked) [Chloroquine, reference compound], the EC50 is 0.8 µM.

Staying with this series, now noted: SI = CC50 HepG2/EC50 PfK1.
Turning to `FC(F)(F)Oc1ccc(Oc2nc3ccccc3nc2C(Cl)(Cl)Cl)cc1` [3k, 2-Trichloromethyl-3-[4-(trifluoromethoxy)phenoxy]quinoxaline], the “SI (selectivity index)” value came out at 67.8.
As for `FC(F)(F)Sc1ccc(Oc2nc3ccccc3nc2C(Cl)(Cl)Cl)cc1` [3m, 2-Trichloromethyl-3-[4-(trifluoromethylthio)phenoxy]quinoxaline], the “SI (selectivity index)” value was found to be 128.0.
Regarding `O=S(=O)(c1ccc(Oc2nc3ccccc3nc2C(Cl)(Cl)Cl)cc1)C(F)(F)F` [3o, 2-Trichloromethyl-3-[4-(trifluoromethylsulfonyl)phenoxy]quinoxaline], the “SI (selectivity index)” value came out at 32.7.
For `N=S(=O)(c1ccc(Oc2nc3ccccc3nc2C(Cl)(Cl)Cl)cc1)C(F)(F)F` (centres unmarked) [3p, 2-Trichloromethyl-3-[4-(S-trifluoromethylsulfonimidoyl)phenoxy]quinoxaline], the “SI (selectivity index)” value was determined as 31.0.
The same measure, in the same setting: the figure for `C[C@H]1[C@H](OC(=O)CCC(=O)O)O[C@@H]2O[C@@]3(C)CC[C@H]4[C@H](C)CC[C@@H]1[C@@]24OO3` [Artesunate, reference compound] is 4900.
For the molecule `C[C@H]1c2cccc(O)c2C(=O)C2=C(O)[C@]3(O)C(=O)C(C(N)=O)=C(O)[C@@H](N(C)C)[C@@H]3[C@@H](O)[C@@H]21` [Doxycycline, reference compound], the “SI (selectivity index)” value was found to be 3.3.

Tested on in the next series: not given
Experiment: not given
Details: not given
Take `FC(F)(F)Oc1ccc(Oc2nc3ccccc3nc2C(Cl)(Cl)Cl)cc1` [3k, 2-Trichloromethyl-3-[4-(trifluoromethoxy)phenoxy]quinoxaline]: the melting point came to 66 °C.
The molecule `FC(F)(F)Sc1ccc(Oc2nc3ccccc3nc2C(Cl)(Cl)Cl)cc1` [3m, 2-Trichloromethyl-3-[4-(trifluoromethylthio)phenoxy]quinoxaline] had a melting point of 94 °C.
In the case of `O=S(=O)(c1ccc(Oc2nc3ccccc3nc2C(Cl)(Cl)Cl)cc1)C(F)(F)F` [3o, 2-Trichloromethyl-3-[4-(trifluoromethylsulfonyl)phenoxy]quinoxaline], the melting point amounted to 107 °C.
For the molecule `N=S(=O)(c1ccc(Oc2nc3ccccc3nc2C(Cl)(Cl)Cl)cc1)C(F)(F)F` (centres unmarked) [3p, 2-Trichloromethyl-3-[4-(S-trifluoromethylsulfonimidoyl)phenoxy]quinoxaline], the melting point was 127 °C.
`O=[N+]([O-])c1ccc(Oc2cnc3ccccc3n2)cc1` [3u, 2-(4-Nitrophenoxy)quinoxaline] yielded a melting point of 156 °C.
Same read-out and setting: the figure for `O=[N+]([O-])c1ccc(Oc2nc3ccccc3nc2C(F)(F)F)cc1` [3v, 2-(4-Nitrophenoxy)-3-trifluoromethylquinoxaline] is 125 °C; for `O=[N+]([O-])c1ccc(Oc2nc3ccccc3nc2C(Cl)Cl)cc1` [3w, 2-Dichloromethyl-3-(4-nitrophenoxy)quinoxaline] it is 112 °C.
